# Source: patent US12653865B2, “Dual-agonist compound for both GLP-1 and GIP receptors and application thereof” (Jiangsu Hengrui Pharmaceuticals Co., Ltd., priority 2020, dated 2026)
# *1 amine or outer side, *2 acyl side, *3 side chain or, on linkers, in order; H or OH if unused. Where a SMILES comes first, the peptide text is derived from it. Side-chain parts run from the residue outwards. [ ]: non-standard residue; d: D form. The star is where a group is joined. C20 diacid = O=C(O)CCCCCCCCCCCCCCCCCCC(=O)*; γGlu = O=C(O)[C@H](CCC(=O)[*:2])N[*:1]; AEEA = NCCOCCOCC(=O)O; Aib = CC(C)(N)C(=O)O
# Key:
# db/db mice = assay: Glucose metabolism level in db/db mice; assay type: in vivo, C57BL/KsJ-db/db mice
# Procedure: Each administration group contained 10 db/db mice. According to the experimental design, tail vein blood was collected by needle pricking on days 0, 7, 14, 21 and 28 and determined for fasting blood glucose levels with a glucometer and glucose dipsticks, and the mice were fasted 6 h prior to the blood collection at each time point. Tail vein blood was collected by needle pricking on days 3, 10, 17, 24 and 27 and randomly determined for blood glucose levels with a glucometer. Finally, at the end of the experiment on day 28, all the animals in the administration groups were subjected to 2-5% isoflurane inhalation anesthesia, and 100 μL of EDTA-K2 anticoagulated whole blood was collected through the orbit of each mouse and used for the determination of glycated hemoglobin.
# diet-induced obese mice = assay: Body weight and fat mass in diet-induced obese mice; assay type: in vivo, C57BL/6 mice; conditions: for rate of change in body weight / viscera/brain ratio for fat mass, Epididymal fat / viscera/brain ratio for fat mass, Inguinal fat / viscera/brain ratio for fat mass, Mesenteric fat / viscera/brain ratio for fat mass, Perirenal fat / viscera/brain ratio for fat mass, Scapular fat / viscera/brain ratio for fat mass, Subcutaneous fat: DIO mice; for viscera/brain ratio for fat mass, Epididymal fat / viscera/brain ratio for fat mass, Inguinal fat / viscera/brain ratio for fat mass, Mesenteric fat / viscera/brain ratio for fat mass, Perirenal fat / viscera/brain ratio for fat mass, Scapular fat / viscera/brain ratio for fat mass, Subcutaneous fat: end of study
# Procedure: (§1) High-fat food-induced obese male C57BL/6 mice (weighing 35-55 g, aged 10-12 weeks, purchased from Shanghai Jiesijie Laboratory Animal Co., Ltd.) were tested. […] According to the experimental design, the body weight of each mouse was measured and recorded on day 0, day 3, day 6 and so on to day 27, the average body weight of each group of mice was calculated, and weight change curves were plotted by taking the body weight on the first day as the standard. At the end, the fat and other visceral organs of each part of the mice were taken out and weighed, and the viscera/brain ratio for fat in each part of each mouse was calculated. The effect of the drug on the fat was determined by comparing the change in the organ/brain ratio for fat of different parts of each group of mice.
# DIO mice = assay: Food intake ration of diet-induced obese mice; assay type: in vivo, C57BL/6 mice
# Procedure: as §1
# The food intake ration of mice in each group was measured daily during the test.
smiles,measurement,setting,value
CC[C@H](C)[C@H](NC(=O)[C@H](CCCCN)NC(=O)[C@H](CCC(=O)O)NC(=O)[C@H](CCCCNC(=O)COCCOCCNC(=O)COCCOCCNC(=O)CC[C@H](NC(=O)CCCCCCCCCCCCCCCCCCC(=O)O)C(=O)O)NC(=O)[C@H](Cc1ccc(O)cc1)NC(=O)[C@@H](NC(=O)[C@H](CO)NC(=O)[C@H](Cc1ccc(O)cc1)NC(=O)[C@H](CC(=O)O)NC(=O)[C@H](CO)NC(=O)[C@@H](NC(=O)[C@H](Cc1ccccc1)NC(=O)[C@@H](NC(=O)CNC(=O)[C@H](CCC(=O)O)NC(=O)C(C)(C)NC(=O)[C@@H](N)Cc1ccc(O)cc1)[C@@H](C)O)[C@@H](C)O)[C@@H](C)CC)C(=O)N[C@@H](C)C(=O)N[C@@H](C)C(=O)N[C@@H](CCC(N)=O)C(=O)N[C@@H](CCC(=O)O)C(=O)N[C@@H](Cc1ccccc1)C(=O)N[C@H](C(=O)N[C@@H](CC(N)=O)C(=O)N[C@@H](Cc1c[nH]c2ccccc12)C(=O)N[C@@H](CC(C)C)C(=O)N[C@@H](CC(C)C)C(=O)N[C@@H](C)C(=O)NCC(=O)NCC(=O)N1CCC[C@H]1C(=O)N[C@@H](CO)C(=O)N[C@@H](CO)C(=O)NCC(=O)N[C@@H](C)C(=O)N1CCC[C@H]1C(=O)N1CCC[C@H]1C(=O)N1CCC[C@H]1C(=O)N[C@@H](CO)C(N)=O)C(C)C [Compound 18#] (H-Y[Aib]EGTFTSDYSIYK([AEEA-AEEA-γGlu-C20 diacid])EKIAAQEFVNWLLAGGPSSGAPPPS-NH2),Concentration of fasting blood glucose,"db/db mice; 10 nmol/kg sc, Day 0",14.77 ± 1.30 mmol/L
same,Concentration of random blood glucose,"db/db mice; 10 nmol/kg sc, Day 0",20.42 ± 1.56 mmol/L
same,Concentration of fasting blood glucose,"db/db mice; 10 nmol/kg sc, Day 7",6.05 ± 0.42 mmol/L
same,Concentration of random blood glucose,"db/db mice; 10 nmol/kg sc, Day 10",20.66 ± 1.48 mmol/L
same,Concentration of fasting blood glucose,"db/db mice; 10 nmol/kg sc, Day 14",6.30 ± 0.46 mmol/L
same,Concentration of random blood glucose,"db/db mice; 10 nmol/kg sc, Day 17",18.91 ± 1.33 mmol/L
same,Concentration of fasting blood glucose,"db/db mice; 10 nmol/kg sc, Day 21",7.89 ± 0.81 mmol/L
same,Concentration of random blood glucose,"db/db mice; 10 nmol/kg sc, Day 24",21.17 ± 2.07 mmol/L
same,Concentration of fasting blood glucose,"db/db mice; 10 nmol/kg sc, Day 28",9.41 ± 0.97 mmol/L
same,Glycated hemoglobin,"db/db mice; 10 nmol/kg sc, day 28",4.71 ± 0.23 %
same,Concentration of fasting blood glucose,"db/db mice; 30 nmol/kg sc, Day 0",14.13 ± 1.32 mmol/L
same,Concentration of random blood glucose,"db/db mice; 30 nmol/kg sc, Day 0",16.73 ± 1.59 mmol/L
same,Concentration of fasting blood glucose,"db/db mice; 30 nmol/kg sc, Day 7",6.21 ± 0.26 mmol/L
same,Concentration of random blood glucose,"db/db mice; 30 nmol/kg sc, Day 10",15.88 ± 1.86 mmol/L
same,Concentration of fasting blood glucose,"db/db mice; 30 nmol/kg sc, Day 14",6.40 ± 0.57 mmol/L
same,Concentration of random blood glucose,"db/db mice; 30 nmol/kg sc, Day 17",17.30 ± 1.17 mmol/L
same,Concentration of fasting blood glucose,"db/db mice; 30 nmol/kg sc, Day 21",7.03 ± 0.52 mmol/L
same,Concentration of random blood glucose,"db/db mice; 30 nmol/kg sc, Day 24",17.43 ± 1.92 mmol/L
same,Concentration of fasting blood glucose,"db/db mice; 30 nmol/kg sc, Day 28",9.68 ± 1.03 mmol/L
same,Glycated hemoglobin,"db/db mice; 30 nmol/kg sc, day 28",4.53 ± 0.17 %
same,Concentration of fasting blood glucose,"db/db mice; 100 nmol/kg sc, Day 0",14.67 ± 1.46 mmol/L
same,Concentration of random blood glucose,"db/db mice; 100 nmol/kg sc, Day 0",9.11 ± 1.25 mmol/L
same,Concentration of fasting blood glucose,"db/db mice; 100 nmol/kg sc, Day 7",5.85 ± 0.33 mmol/L
same,Concentration of random blood glucose,"db/db mice; 100 nmol/kg sc, Day 10",12.34 ± 1.12 mmol/L
same,Concentration of fasting blood glucose,"db/db mice; 100 nmol/kg sc, Day 14",6.25 ± 0.32 mmol/L
same,Concentration of random blood glucose,"db/db mice; 100 nmol/kg sc, Day 17",11.89 ± 1.15 mmol/L
same,Concentration of fasting blood glucose,"db/db mice; 100 nmol/kg sc, Day 21",6.13 ± 0.19 mmol/L
same,Concentration of random blood glucose,"db/db mice; 100 nmol/kg sc, Day 24",11.51 ± 0.95 mmol/L
same,Concentration of fasting blood glucose,"db/db mice; 100 nmol/kg sc, Day 28",7.89 ± 0.41 mmol/L
same,Glycated hemoglobin,"db/db mice; 100 nmol/kg sc, day 28, listed as 18 #",3.78%
same,Glycated hemoglobin,"db/db mice; 100 nmol/kg sc, day 28, listed as #18",3.78 ± 0.13 %
same,rate of change in body weight,"diet-induced obese mice; 3 nmol/kg sc, day 1 after administration",−5 ± 0.6%
same,rate of change in body weight,"diet-induced obese mice; 3 nmol/kg sc, day 6 after administration",−10 ± 4.4 %
same,rate of change in body weight,"diet-induced obese mice; 3 nmol/kg sc, day 7 after administration",−13 ± 5.3 %
same,"viscera/brain ratio for fat mass, Epididymal fat",diet-induced obese mice; 3 nmol/kg sc,254.6 ± 113.4 %
same,"viscera/brain ratio for fat mass, Inguinal fat",diet-induced obese mice; 3 nmol/kg sc,281.5 ± 140.1 %
same,"viscera/brain ratio for fat mass, Mesenteric fat",diet-induced obese mice; 3 nmol/kg sc,84.8 ± 41.3 %
same,"viscera/brain ratio for fat mass, Perirenal fat",diet-induced obese mice; 3 nmol/kg sc,159.2 ± 87.6 %
same,"viscera/brain ratio for fat mass, Scapular fat",diet-induced obese mice; 3 nmol/kg sc,48 ± 15.3%
same,"viscera/brain ratio for fat mass, Subcutaneous fat",diet-induced obese mice; 3 nmol/kg sc,120 ± 62 %
same,rate of change in body weight,"diet-induced obese mice; 10 nmol/kg sc, day 6 after administration",−15 ± 5.3 %
same,rate of change in body weight,"diet-induced obese mice; 10 nmol/kg sc, day 24 after administration",−26 ± 7.1 %
same,"viscera/brain ratio for fat mass, Epididymal fat",diet-induced obese mice; 10 nmol/kg sc,211.7 ± 80.7 %
same,"viscera/brain ratio for fat mass, Inguinal fat",diet-induced obese mice; 10 nmol/kg sc,194.4 ± 86.2 %
same,"viscera/brain ratio for fat mass, Mesenteric fat",diet-induced obese mice; 10 nmol/kg sc,53.3 ± 14.6 %
same,"viscera/brain ratio for fat mass, Perirenal fat",diet-induced obese mice; 10 nmol/kg sc,109.4 ± 57.1 %
same,"viscera/brain ratio for fat mass, Scapular fat",diet-induced obese mice; 10 nmol/kg sc,42.5 ± 17^ %
same,"viscera/brain ratio for fat mass, Subcutaneous fat",diet-induced obese mice; 10 nmol/kg sc,122 ± 73.2 %
same,rate of change in body weight,"diet-induced obese mice; 100 nmol/kg sc, day 20 after administration",−39 ± 6.5 %
same,rate of change in body weight,"diet-induced obese mice; 100 nmol/kg sc, day 23 after administration",−38 ± 5.9 %
same,"viscera/brain ratio for fat mass, Epididymal fat",diet-induced obese mice; 100 nmol/kg sc,102.9 ± 32.2 %
same,"viscera/brain ratio for fat mass, Inguinal fat",diet-induced obese mice; 100 nmol/kg sc,92 ± 34.5 %
same,"viscera/brain ratio for fat mass, Mesenteric fat",diet-induced obese mice; 100 nmol/kg sc,27.4 ± 11.1 %
same,"viscera/brain ratio for fat mass, Perirenal fat",diet-induced obese mice; 100 nmol/kg sc,46.6 ± 18.2 %
same,"viscera/brain ratio for fat mass, Scapular fat",diet-induced obese mice; 100 nmol/kg sc,32.3 ± 7%
same,"viscera/brain ratio for fat mass, Subcutaneous fat",diet-induced obese mice; 100 nmol/kg sc,57.1 ± 21.2 %
same,body weight reduced by,"diet-induced obese mice; high-fat food-induced obese mice, 10 nmol/kg, day 27, text",more than 20.0%
same,daily food intake ration,"DIO mice; 3 nmol/kg sc, day 3 after administration",2 ± 0.5 g
same,cumulative food intake ration,"DIO mice; 3 nmol/kg, 28 days after the administration",58.2 g
same,cumulative food intake ration,"DIO mice; 3 nmol/kg, within 5 days after the administration",7.2 g
same,daily food intake ration,"DIO mice; 10 nmol/kg sc, day 9 after administration",2 ± 0.6 g
same,daily food intake ration,"DIO mice; 10 nmol/kg sc, day 15 after administration",3 ± 0.9 g
same,daily food intake ration,"DIO mice; 10 nmol/kg sc, day 20 after administration",2 ± 0.5 g
same,cumulative food intake ration,"DIO mice; 10 nmol/kg, 28 days after the administration",46.8 g
same,cumulative food intake ration,"DIO mice; 10 nmol/kg, within 5 days after the administration",3.9 g
same,daily food intake ration,"DIO mice; 100 nmol/kg sc, day 15 after administration",2 ± 0.4 g
same,daily food intake ration,"DIO mice; 100 nmol/kg sc, day 18 after administration",2 ± 0.4 g
same,cumulative food intake ration,"DIO mice; 100 nmol/kg, 28 days after the administration",36.7 g
same,cumulative food intake ration,"DIO mice; 100 nmol/kg, within 5 days after the administration",1.8 g
